Data reported in publication PMC4506092, “Utilizing Chemical Genomics to Identify Cytochrome b as a Novel Drug Target for Chagas Disease” (PLoS Pathogens, 2015).
Where two headings read alike, the source gives them in different places.

Key:
[1] = tested on: NIH/3T3 fibroblast cells; test: Mammalian cell cytotoxicity assay (CellTiter-Glo); assay type: cell-based, mouse; settings: for Toxicity on the host 3T3 cells (in words): host cells of the intracellular amastigote assay, prevented determination of amastigote EC50
Experimental: NIH/3T3 fibroblast cells were maintained in RPMI-1640 medium supplemented with 10% heat-inactivated FBS and 100 IU penicillin / 100 μg streptomycin per mL at 37°C / 5% CO2. For compound screening, cells were diluted to 4 × 10^4 cells / mL in assay medium (RPMI-1640, 5% FBS, and 100 IU penicillin / 100 μg streptomycin per mL) and seeded at 50 μL / well into 384-well plates. Following overnight incubation, compounds were added to each well (0.2% DMSO final concentration) and plates were further incubated for 96 hours. Cell viability was assessed using the CellTiter-Glo Luminescent Cell Viability Assay (Promega). Measured luminescence values were normalized to the value obtained for 0.2% DMSO, and plotted against the corresponding compound concentration for half maximal cytotoxic concentration (CC50) value determination.

[2] = tested on: S. cerevisiae strain NF7061; test: S. cerevisiae susceptibility assay, YPD (dextrose) medium; assay type: cell-based, Saccharomyces cerevisiae; settings: 24 hours
Experimental: The minimal inhibitory concentrations (MIC) of the compounds for inhibition of S. cerevisiae drug pump knock-out strain NF7061 (MATa his3Δ 1; leu2Δ 0; met15Δ 0; ura3Δ 0; snq2::KanMX; pdr5::KanMX; pdr1::NAT1; pdr3::KanMX; yap1::NAT1; pdr2::LEU2; yrm1::MET; yor1::LYS2) were determined by a modification of the microdilution technique described elsewhere. Briefly, two-fold dilutions of the compound solution in DMSO were made. They were added to each well of 96-well assay plate containing 200 μL per well of either YPD (1% Difco Yeast Extract, 2% Difco Bacto Peptone and 2% Dextrose) or YPG (3% of glycerol in replacement of 2% Dextrose in YP) medium. Early stationary yeast NF7061 cells grown in either medium were collected and resuspended to 2 × 10^5 cells / mL. Ten microliters of the yeast cell suspension were inoculated to each well of the plates containing medium and compound to achieve a final inoculum of approximately 10^4 CFU / mL. The plates were incubated at 30°C for 24 hours (containing YPD) or 48 hours (containing YPG).

[3] = tested on: P. falciparum yDHODH-D10attB; test: P. falciparum SYBR Green proliferation assay, yDHODH-D10attB line; assay type: cell-based, Plasmodium falciparum
Experimental: GNF7686 and cytochrome b inhibitors were assayed for activity on two Plasmodium falciparum (P. falciparum) lines: D10attB and yDHODH-D10attB. The D10attB line is reliant on the coenzyme Q-dependent malarial dihydroorotate dehydrogenase (PfDHODH), whereas the yDHODH-D10attB line expresses also the fumarate-utilizing Saccharomyces cerevisiae (S. cerevisiae) DHODH, which circumvents reliance on PfDHODH and renders this line fully resistant to cytochrome b inhibitors. The use of these two lines allows for distinction of selection of potent cytochrome b inhibitors as described in detail in the Results section. Growth and viability of P. falciparum cell lines (in the presence or absence of drug) in infected erythrocytes were assessed using a SYBR Green-based proliferation assay exactly as described previously.

[4] = tested on: T. b. brucei procyclics; test: T. b. brucei procyclic form in vitro efficacy assay; assay type: cell-based, Trypanosoma brucei brucei; settings: 72 hours
Experimental: For conversion from the bloodstream form to the procyclic form, bloodstream form parasites were transferred from HMI-9 medium to Differentiating Trypanosome Medium (DTM, pH = 7.2), consisting of: 6.8 g / L NaCl, 400 mg / L KCl, 200 mg / L CaCl2, 140 mg / L NaH2PO4.H2O, 200 mg / L MgSO4.7H2O, 7.94 g / L HEPES, 2.2 g / L NaHCO3, 110 mg / L sodium pyruvate, 10 mg / L phenol red, 14 mg / L hypoxanthine, 1 mg / L biotin, 760 mg / L glycerol, 640 mg / L proline, 236 mg / L glutamic acid, 1.34 g / L glutamine, 7.5 mg / L hemin (in 50 mM sodium hydroxide), 1X MEM amino acid solution (Invitrogen),1X MEM non-essential amino acids solution (Invitrogen), 28.2 mg / L bathocuproine disulfonate.Na2, 182 mg/L cysteine, 0.2 mM 2-mercaptoethanol, 15% heat-inactivated FBS, and 5 mM sodium citrate and cis-aconitate. Following medium exchange, parasites were incubated at a lower temperature (27°C / 5% CO2), monitored for change in morphology to procyclic parasites, and sub-cultured for long-term cultivation.
For compound screening, 20 μliters (5,000 parasites) of T. b. brucei procyclic culture were added to 384-well plate wells filled with 20 μliters of DTM medium and pre-dispensed compounds (0.25% final DMSO concentration). Plates were then incubated for 72 hours at 27°C / 5% CO2. Cell viability was assessed using the CellTiter-Glo Luminescent Cell Viability Assay (Promega).

[5] = tested on: T. cruzi epimastigote respiration (wild-type); test: T. cruzi epimastigote respiration (oxygen consumption, MitoXpress-Xtra), wild-type; assay type: cell-based; settings: Trypanosoma cruzi; intact epimastigotes
Experimental: GNF7686 and cytochrome b inhibitors (0.2% DMS0 final concentration) were added to 384-well assay plates containing 20 μL of assay buffer (250 mM sucrose, 15 mM KCl, 5 mM MgCl2, 1 mM EGTA, 30 mM K2HPO4, pH 7.4) and allowed to dissolve for two hours. Meanwhile, T. cruzi epimastigotes were harvested (800 × g for 5 min at 4°C), washed twice with buffer A (10 mM Tris-HCl, pH = 7.4, 0.23 M mannitol, 0.07 M sucrose, 0.2 mM EDTA, 0.2% bovine serum albumin, 0.5 mM phenylmethanesulfonyl fluoride), and finally resuspended in buffer A at a final concentration of 150 × 10^6 epimastigotes / mL. Next, 20 μL of T. cruzi epimastigote suspension (3 x 10^6 parasites) was added to each sample well, and then 15 μL of MitoXpress-Xtra probe (Cayman Chemicals) was added (final assay volume of 60 μL). Probe phosphorescence is quenched in the presence of oxygen and is inversely proportional to the amount of oxygen present in the solution. […] The assay plate was transferred to a Gemini XPS fluorescence plate reader (Molecular Devices) and read at 3 minute intervals at excitation and emission wavelengths of 380 nm and 650 nm, respectively, for 30 minutes at 37°C. The slope for the linear portion of time course of fluorescence increase (rate of oxygen consumption) was calculated after subtraction of blank well values. […]

[6] = tested on: T. cruzi epimastigote respiration (GNF7686-resistant, DR); test: T. cruzi epimastigote respiration (oxygen consumption, MitoXpress-Xtra), GNF7686-resistant; assay type: cell-based, Trypanosoma cruzi; settings: for IC50: Trypanosoma cruzi, intact epimastigotes
Experimental: GNF7686 and cytochrome b inhibitors (0.2% DMS0 final concentration) were added to 384-well assay plates containing 20 μL of assay buffer (250 mM sucrose, 15 mM KCl, 5 mM MgCl2, 1 mM EGTA, 30 mM K2HPO4, pH 7.4) and allowed to dissolve for two hours. Meanwhile, T. cruzi epimastigotes were harvested (800 × g for 5 min at 4°C), washed twice with buffer A (10 mM Tris-HCl, pH = 7.4, 0.23 M mannitol, 0.07 M sucrose, 0.2 mM EDTA, 0.2% bovine serum albumin, 0.5 mM phenylmethanesulfonyl fluoride), and finally resuspended in buffer A at a final concentration of 150 × 10^6 epimastigotes / mL. Next, 20 μL of T. cruzi epimastigote suspension (3 x 10^6 parasites) was added to each sample well, and then 15 μL of MitoXpress-Xtra probe (Cayman Chemicals) was added (final assay volume of 60 μL). Probe phosphorescence is quenched in the presence of oxygen and is inversely proportional to the amount of oxygen present in the solution. HS mineral oil (20 μL, Cayman Chemicals) was added to wells to prevent oxygen exchange between the assay buffer and air. Blank wells containing assay buffer without parasites, corresponding compound, and mineral oil were prepared in parallel and values were subtracted from sample values to specifically measure changes in oxygen concentration caused by parasite respiration. All sample and blank wells were prepared in duplicate. The assay plate was transferred to a Gemini XPS fluorescence plate reader (Molecular Devices) and read at 3 minute intervals at excitation and emission wavelengths of 380 nm and 650 nm, respectively, for 30 minutes at 37°C. The slope for the linear portion of time course of fluorescence increase (rate of oxygen consumption) was calculated after subtraction of blank well values. Obtained slope values were normalized to the slope obtained for 0.2% DMSO, and plotted against the corresponding compound concentration for half maximal inhibitory concentration (IC50) value determination.

[7] = Saccharomyces cerevisiae, NF7061, MIC visual growth inhibition screen
[8] = Plasmodium falciparum; read-out: P. falciparum EC50, yDHODH-D10attB

With CO/C(=C/C(N)=O)[C@H](C)[C@H](/C=C/c1csc(-c2csc([C@@H](C)/C=C/C=C/C(C)C)n2)n1)OC [Myxothiazol] the “Toxicity on the host 3T3 cells (in words)” value (shortened to “Toxicity”) [1] was “toxicity”, the EC50 ([2]; MIC visual growth inhibition screen) was 30 ± 10 µM and the EC50 ([3]; read-out: P. falciparum EC50, yDHODH-D10attB) was 8.4 ± 1.6 µM. The EC50 [4] was 2.5 ± 0.22 µM.

CCc1c(C)c(C#N)c2nc3ccccc3n2c1O [GNF7686] was tested, and the “Mammalian cell proliferation: no effect observed up to” value ([1]; mouse) was over 25 µM, the EC50 [2, 7] was over 40 µM and the EC50 [3, 8] was over 12.5 µM. The IC50 [5] was 0.21 µM, the EC50 ([4]; Trypanosoma brucei) was 0.59 ± 0.09 µM and the IC50 [6] was 5.2 µM.

For CO\C=C(C(=O)OC)/C(C)=C\C=C\c1ccccc1 [Strobilurin], the “Toxicity” value [1] was “toxicity”, the EC50 [2, 7] was over 40 µM and the EC50 [3, 8] was over 12.5 µM. The EC50 ([4]; Trypanosoma brucei) was 3.2 ± 0.33 µM.

In the case of CCCCCC[C@H]1C(=O)O[C@H](C)[C@H](NC(=O)c2cccc(NC=O)c2O)C(=O)O[C@@H](C)[C@@H]1OC(=O)CC(C)C [Antimycin A], the “Toxicity” value [1] is reported as “toxicity”, the EC50 [2, 7] is reported as 5 µM and the EC50 ([3]; Plasmodium falciparum, read-out: P. falciparum EC50, yDHODH-D10attB) is reported as over 12.5 µM. For the same molecule, the IC50 [5] was 0.04 µM, the EC50 ([4]; Trypanosoma brucei) was 0.03 ± 0.002 µM and the “Loss of potency on respiration, GNF7686-resistant vs wild-type” value [6] was ~ 7 fold. It also gave an IC50 [6] of 0.27 µM.

For O=C(Cn1ccnc1[N+](=O)[O-])NCc1ccccc1 [Benznidazole], the EC50 [2, 7] was over 40 µM, the EC50 [3, 8] was over 12.5 µM and the EC50 ([4]; Trypanosoma brucei) was over 25 µM.
